Data reported in patent US11292773B2, “Small molecule inhibitors of BCL-2-associated death promoter (BAD) phosphorylation” (NATIONAL UNIVERSITY OF SINGAPORE, priority 2017, dated 2022).

What was measured:
MCF7 xenograft = MCF7 xenograft in BALB/c-nu female mice; type: in vivo
Description: (A) Measurement of tumour volume in BALB/c-nu female mice as described in materials and methods. Animals (n=5 each group) were treated with vehicle, 5 mg/kg NPB or 20 mg/kg NPB, and relative tumour burden was recorded. Animal weight was measured daily for the duration of the experiment. (B) Tumours were excised after the NPB treatment regime and weighed. Representative resected tumours are shown in the right side. (C) WB of tumour tissue to determine levels of p-BAD (Ser99) and BAD. Soluble whole cell extracts were run on an SDS-PAGE and immunoblotted as described in methodology. β-ACTIN was used as an input control. The sizes of detected protein bands in kDa are shown on the left side. (D) Histological analyses of phospho-BAD, BAD, Ki67 and TUNEL staining. […] Apoptotic DNA fragmentation was detected using TUNEL Apoptosis Detection Kit (Gen Script USA Inc.) as described in methodology. Statistical significance was assessed by an unpaired two-tailed Student's t-test (P<0.05 was considered as significant) using GraphPad Prism5. The point represents mean of triplicate experiments; bars, ±SD. **P<0.001, *P<0.05.
5- to 6-week-old BALB/c-nu female mice were subcutaneously implanted with 17β-estradiol pellets (Innovative Research of America) at 0.72 mg/pellet with a 60-day release in the scruff of the neck after three days mice were injected subcutaneously with 100 μl of cell suspension (1×10^7 cells) in right flanks. Tumour growth was monitored by measuring the tumour size using callipers. About 12 days after implantation, mice were randomized and divided into three groups (each group, n=8), according to treatments administered 200 μl of NPB (dissolved in 5% DMSO, 50% PEG400 and 45% water pH 5.0) by intraperitoneal injection every day for seven days. The first group of mice was treated with vehicle, the second with 5 mg/kg dose of NPB, and the third with 20 mg/kg dose of NPB. Animal weight and tumour volumes were measured daily. After completion tumours were excised, photographed, weighed, and fixed or stored in liquid nitrogen for later analysis. Histological analysis was performed as previously described (30-32).
We examined the in vivo efficacy of NPB in a xenograft (MCF7) of MC. Randomly grouped mice with preformed tumours (volume ˜[…]) were injected intraperitoneally with vehicle or NPB at 5 mg/kg or 20 mg/kg. […] However, the tumour weight of NPB-treated animals was reduced compared to vehicle-treated mice and in a dose-dependent manner (FIG. 17B). We further analysed the effect of NPB on hBAD Ser99 phosphorylation levels in tumour tissue using WB analysis (FIG. 17C).

MCF7 cells = assay: AlamarBlue cell viability assay; type: cell-based; settings: Homo sapiens, read-out: IC50 (antiproliferative)
Excerpt: We initially investigated the effect of newly synthesized small molecule compounds against MCF7 cells (ER+ MC cells) using an AlamarBlue® cell viability assay. Among the series of novel small molecule compounds, NPB was identified as an efficacious small molecule compound reducing viability of MCF7 cells compared to vehicle (DMSO) treated cells. […] We next determined the inhibitory concentration 50% (IC50) of NPB in wide-range of carcinoma cell lines including those derived from ER− mammary (BT549, MDA-MB-231), ER+ mammary (MCF7, T47D, and BT474), endometrial (Ishikawa, ECC-1, RL95-2, and AN3), ovarian (SK-OV-3, OVCAR-2, Caov-3, HEY C2, and OVCA433), hepatocellular (Hep3B, H2P, and H2M), colon (HCT116, DLD-1, and Caco-2), prostate (PC3, LNCaP, and DU145) and pancreatic (AsPC-1, BxPC-3) carcinoma. As normal cell controls, we also included immortalized mammary epithelial cells (MCF10A and MCF12A), and immortalized hepatocytes (LO2) in the panel of cell lines.

[1] = molecular target: T1, hBAD phosphorylation (Ser75, Ser99) (Homo sapiens, UniProt Q92934); assay: Western blot of hBAD Ser75 and Ser99 phosphorylation in 25 carcinoma cell lines; type: cell-based; settings: all tested carcinoma cell lines, NPB 5 μM
T1 construct: endogenous in cells; host or cells: MCF7 (A6); 25 carcinoma cell lines of seven cancer types (A7)
T1 sequence (Q92934 1-168): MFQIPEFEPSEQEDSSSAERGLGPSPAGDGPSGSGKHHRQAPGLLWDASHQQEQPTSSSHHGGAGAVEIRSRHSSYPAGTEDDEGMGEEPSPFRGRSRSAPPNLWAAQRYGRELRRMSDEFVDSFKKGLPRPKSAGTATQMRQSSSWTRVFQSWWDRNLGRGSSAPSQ
Description: (A) WB analysis was used to assess the levels of phosphorylated human BAD (at Ser75 and Ser99) and BAD protein in the range of carcinoma cell lines, including mammary, ovarian, pancreatic, endometrial, hepatocellular, colon and prostate cancer after treatment with NPB (5 μM). Total BAD was used as an input control for cell lysate. (B) WB analysis was used to assess the levels of pBAD (Ser99) and pAKT (Ser473), AKT and BAD in MCF7, Caov-3, Ishikawa, and AsPC-1 cells. 5 μM each of AKT inhibitor (IV) and NPB was used to treat cells. Depletion of AKT expression was achieved using transient-transfection of short hairpin (sh)-RNA (1&2) directed to AKT transcript as described in methodology. β-ACTIN was used as an input control for cell lysate. For WB analysis, soluble whole cell extracts were run on an SDS-PAGE and immunoblotted as described in materials methodology. The sizes of detected protein bands in kDa are shown on the left side. Note: #; non-transformed immortalized-cell line.
We next analyzed the effect of NPB on phosphorylation of hBAD at both Ser75 and Ser99 by western blot analysis in 25 carcinoma cell lines derived seven different types of cancer.

[2] = 5 mg/kg or 20 mg/kg intraperitoneal, daily for seven days, vs vehicle
[3] = histological analysis, vs vehicle
[4] = tumour tissue, western blot, vs control

animal weight (MCF7 xenograft; [2]): not significantly different | IC50 (MCF7 cells): 6.5 µM | phosphorylation of BAD at the Ser99 site [1]: largely inhibits | phosphorylation of hBAD at the Ser75 site [1]: no effect
SMILES: O=C(NC1CCCC1)c1cccc(C(c2ccccc2O)N2CCN(c3cccc(Cl)c3Cl)CC2)c1 (centres unmarked) [NPB, N-cyclopentyl-3-((4-(2,3-dichlorophenyl)piperazin-1-yl)(2-hydroxyphenyl)methyl) benzamide]
tumour volume (MCF7 xenograft; [2]): significant reduction | tumour weight (MCF7 xenograft; 5 mg/kg or 20 mg/kg intraperitoneal, dose-dependent, vs vehicle): reduced | TUNEL positivity in tumours (MCF7 xenograft; [3]): significantly increased | p-BAD (Ser99) in tumour specimens (histology) (MCF7 xenograft; [3]): significantly reduced | percentage of Ki67 positive cells in tumours (MCF7 xenograft; [3]): significantly decreased | phosphorylation of BAD (at Ser99) in tumour tissue (WB) (MCF7 xenograft; [4]): significantly inhibited | total levels of BAD protein in tumours (WB) (MCF7 xenograft; [4]): No change
